Source: patent US8143296B2, “Thiazole-based compound and inhibitor of T-type calcium channel containing the same” (Korea Institute of Science and Technology, priority 2006, dated 2012)

Legend:
[1] = target: T1, α1G T-type calcium channel (Homo sapiens, UniProt O43497); experiment: Assay for % inhibiting activity against T-type calcium channel using FDSS6000; format: cell-based; details: HEK293 cells expressing α1G; for inhibition at 10 µM: HEK293, 10 μM
T1 construct: host or cells: HEK293
Description: In the present invention, in order to search an efficient inhibitor against T-type calcium channel, a primary assay for T-type calcium channel inhibiting activity was conducted by a high-efficient assay using FDSS6000, wherein mammal HEK293 cell lines (originated from human kidney carcinoma cells) which specifically expresses α1G of T-type calcium channel was used for primary assay. Through the primary assay, compounds which show meaningful inhibition effects were selected. The selected compounds were used in a second assay for T-type calcium channel inhibiting activity using electrophysiological whole cell patch clamp method, wherein mammal HEK293 cell lines (originated from human kidney carcinoma cells) which specifically expresses α1G of T-type calcium channel was used for the second assay.
At 12-24 hours before being used for this assay, cells of HEK293 cell line (α1G cell line: KCTC 10519BP, Korean Collection for Type Cultures), which stably express α1G T-type calcium channel and Kir2.1, were sub-cultured in a poly-L-lysine treated 96-well plate with the density of 4×10^4 per a well using a 96-well cell dispenser (Titertek). On the of assay, the 96-well plate to which the cells were attached were washed three times with HEPES buffer solution (150 mM of NaCl, 5 mM of KCl, 1 mM of MgCl2, 2 mM of CaCl2, 10 mM of HEPES, 10 mM of glucose; pH 7.4) using a 96-well plate automatic washing device (Bio Tek), then reacted with HEPES buffer solution containing 5 μM fluo-3/AM and 0.001% Pluronic F-127 under room temperature for 1 hour, to label with fluorescent dye, and then further washed two times with HEPES buffer solution.
Thereafter, at 10 minutes before the measurement using device FDSS6000, a washing with HEPES buffer solution containing 10 mM CaCl2 was conducted once more, and the final volume was adjusted to 81 μl. Besides the above 96-well plate containing the cells, additional two drug 96-well plates were provided, wherein the 96-well plates contain inhibiting drug and KCl (final concentration: 75 mM) for activating T-type calcium channel, respectively. Since most of cell-based HTS devices are equipped with a liquid application system for injection of drug, but have no liquid sucking system, the inhibiting drug to be tested and KCl were respectively provided at the five-times higher concentration in 10 mM CaCl2 HEPES buffer solution at the amount of 27 μl, diluted five-times at the final cell plate volume of 135 μl, and then used in this test. The concrete method of measurement using FDSS6000 was as follows: After recording the reference value of 20 seconds, the change of intracellular Ca^2+ concentration which induced by treatment of the inhibiting drug to be tested for 75 seconds followed by administration of KCl was measured, wherein the percentage (%) inhibition effect of the test drug, through estimating the area of ratio value of 340/380 in the control without treatment of the test drug as 100%. As a reference drug, mibefradil was used.
For accurate calcium-imagination, the light source of 4 xenon lamps in FDSS6000 were radiated to make the cells exposed selectively to the excitation wavelength (340 nm and 380 nm) by computer-controlled filter wheel. Data was obtained at interval of each 1.23 second. The emitter fluorescence light inflowed through long-pass filter was obtained as an average 340/380 ratio value for each well in the 96-wells by using CCD camera and digital fluorescence analyzer in FDSS6000. All image data and analyses were obtained by using FDSS6000-exclusive program provide from Hamamatsu Photonics.

[2] = Table 3 (Chemical Formula 2 series)
[3] = Table 4 (Chemical Formula 3 series)

T1 sequence (O43497 whole entry): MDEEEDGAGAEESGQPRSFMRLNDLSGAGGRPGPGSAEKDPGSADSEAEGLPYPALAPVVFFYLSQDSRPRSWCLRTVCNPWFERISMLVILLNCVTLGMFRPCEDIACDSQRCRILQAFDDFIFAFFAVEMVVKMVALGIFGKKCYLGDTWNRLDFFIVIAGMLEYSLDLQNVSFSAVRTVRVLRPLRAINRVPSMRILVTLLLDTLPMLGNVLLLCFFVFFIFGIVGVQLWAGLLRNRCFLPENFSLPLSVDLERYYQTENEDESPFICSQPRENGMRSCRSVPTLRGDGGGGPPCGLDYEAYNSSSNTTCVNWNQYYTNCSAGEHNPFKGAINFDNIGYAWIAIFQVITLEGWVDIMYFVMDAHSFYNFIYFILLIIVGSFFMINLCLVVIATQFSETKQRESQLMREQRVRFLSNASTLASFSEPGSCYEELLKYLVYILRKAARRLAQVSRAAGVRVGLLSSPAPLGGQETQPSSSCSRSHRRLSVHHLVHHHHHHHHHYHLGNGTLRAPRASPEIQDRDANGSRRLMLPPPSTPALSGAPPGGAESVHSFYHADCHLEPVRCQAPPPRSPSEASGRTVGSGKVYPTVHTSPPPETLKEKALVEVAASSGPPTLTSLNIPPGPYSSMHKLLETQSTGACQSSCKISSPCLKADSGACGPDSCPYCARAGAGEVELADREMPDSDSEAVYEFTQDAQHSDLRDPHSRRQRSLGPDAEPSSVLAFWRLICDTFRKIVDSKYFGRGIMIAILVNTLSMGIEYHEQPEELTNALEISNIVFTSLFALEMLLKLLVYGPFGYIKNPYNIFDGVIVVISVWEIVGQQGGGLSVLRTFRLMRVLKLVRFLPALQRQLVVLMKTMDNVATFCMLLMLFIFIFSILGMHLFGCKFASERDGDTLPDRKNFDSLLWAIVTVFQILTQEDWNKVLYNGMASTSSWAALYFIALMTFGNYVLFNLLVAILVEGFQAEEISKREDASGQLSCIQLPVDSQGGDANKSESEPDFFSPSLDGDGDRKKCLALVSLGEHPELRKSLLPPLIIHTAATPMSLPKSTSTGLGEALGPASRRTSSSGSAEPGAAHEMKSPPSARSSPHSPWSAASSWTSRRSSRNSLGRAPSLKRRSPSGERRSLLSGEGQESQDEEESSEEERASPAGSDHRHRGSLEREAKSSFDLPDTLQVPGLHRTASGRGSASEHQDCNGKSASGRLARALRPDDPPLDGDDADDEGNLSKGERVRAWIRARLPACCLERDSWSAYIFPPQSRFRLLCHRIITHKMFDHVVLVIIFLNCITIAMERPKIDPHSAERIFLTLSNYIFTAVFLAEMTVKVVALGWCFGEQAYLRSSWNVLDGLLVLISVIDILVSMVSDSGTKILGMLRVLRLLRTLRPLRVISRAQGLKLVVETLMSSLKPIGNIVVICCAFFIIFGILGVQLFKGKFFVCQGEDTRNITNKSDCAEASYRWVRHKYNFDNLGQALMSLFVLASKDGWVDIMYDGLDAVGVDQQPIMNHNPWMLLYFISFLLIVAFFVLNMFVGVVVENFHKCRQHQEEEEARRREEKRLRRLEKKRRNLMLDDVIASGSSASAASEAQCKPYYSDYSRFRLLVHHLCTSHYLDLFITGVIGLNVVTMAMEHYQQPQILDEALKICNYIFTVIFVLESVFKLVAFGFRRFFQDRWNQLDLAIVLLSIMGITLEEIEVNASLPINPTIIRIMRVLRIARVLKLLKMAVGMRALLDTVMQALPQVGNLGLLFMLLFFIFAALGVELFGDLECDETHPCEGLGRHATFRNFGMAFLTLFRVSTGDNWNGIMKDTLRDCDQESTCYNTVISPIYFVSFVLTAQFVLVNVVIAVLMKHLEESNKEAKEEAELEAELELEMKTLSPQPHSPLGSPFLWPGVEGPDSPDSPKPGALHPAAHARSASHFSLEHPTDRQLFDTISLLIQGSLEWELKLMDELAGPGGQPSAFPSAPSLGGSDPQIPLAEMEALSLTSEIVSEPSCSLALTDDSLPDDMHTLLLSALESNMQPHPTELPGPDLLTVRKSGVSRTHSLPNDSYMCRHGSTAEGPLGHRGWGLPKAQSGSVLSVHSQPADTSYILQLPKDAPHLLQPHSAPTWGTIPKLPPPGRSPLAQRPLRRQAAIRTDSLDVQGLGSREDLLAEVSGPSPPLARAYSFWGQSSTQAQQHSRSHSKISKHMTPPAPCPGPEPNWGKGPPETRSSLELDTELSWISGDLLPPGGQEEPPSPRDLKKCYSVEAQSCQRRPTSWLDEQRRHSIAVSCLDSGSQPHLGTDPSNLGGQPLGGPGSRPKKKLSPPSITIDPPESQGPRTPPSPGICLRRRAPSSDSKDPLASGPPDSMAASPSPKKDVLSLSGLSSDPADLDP

inhibition at 10 µM [1, 2] [%]	melting point [°C]	% Inhibition [α1G, 10 μM) using FDSS6000 ([1]; 10 μM, Table 3 (Chemical Formula 2 series), hydrochloride) [%]	inhibition at 10 µM [1, 3] [%]	Structure (SMILES)
28.1	237.2 to 239.8			Cl.NC(N)=Nc1nc(CC(=O)Nc2ccc(Cl)cc2F)cs1 [KHG23173, N-(4-chloro-2-fluorophenyl)-2-(2-(diaminomethyleneamino)thiazole-4-yl)acetamide hydrochloride]
18.8	218.6 to 220			Cc1ccc(NC(=O)Cc2csc(N=C(N)N)n2)c(Cl)c1.Cl [KHG23174, N-(2-chloro-4-methylphenyl)-2-(2-(diaminomethyleneamino)thiazole-4-yl)acetamide hydrochloride]
23.8	236.2 to 238.3			Cc1ccc(NC(=O)Cc2csc(N=C(N)N)n2)cc1.Cl [KHG23175, 2-(2-(diaminomethyleneamino)thiazole-4-yl)-N-p-tolylacetamide hydrochloride]
20.5	218.4 to 219.4			Cl.N#Cc1ccc(NC(=O)Cc2csc(N=C(N)N)n2)cc1 [KHG23176, N-(4-cyanophenyl)-2-(2-(diaminomethyleneamino)thiazole-4-yl)acetamide hydrochloride]
23.3	197.8 to 198.1			Cl.NC(N)=Nc1nc(CC(=O)Nc2ccccc2)cs1 [KHG23177, 2-(2-(diaminomethyleneamino)thiazole-4-yl)-N-phenylacetamide hydrochloride]
34.5	246.4 to 247			Cl.NC(N)=Nc1nc(CC(=O)Nc2ccc(Br)cc2)cs1 [KHG23178, N-(4-bromophenyl)-2-(2-(diaminomethyleneamino)thiazole-4-yl)acetamide hydrochloride]
	225.8 to 228.4	30.76		COc1ccc(NC(=O)Cc2csc(N=C(N)N)n2)cc1F.Cl [KHG23179, 2-(2-(diaminomethyleneamino)thiazole-4-yl)-N-(3-fluoro-4-methoxyphenyl)acetamide hydrochloride]
24.9	244.3 to 245			Cl.NC(N)=Nc1nc(CC(=O)Nc2ccc(Cl)cc2)cs1 [KHG23184, N-(4-chlorophenyl)-2-(2-(diaminomethyleneamino)thiazole-4-yl)acetamide hydrochloride]
12.3	248.5 to 249.2			Cl.NC(N)=Nc1nc(CC(=O)Nc2cc(Cl)cc(Cl)c2)cs1 [KHG23185, 2-(2-(diaminomethyleneamino)thiazole-4-yl)-N-(3,5-dichlorophenyl)acetamide hydrochloride]
29.8	228 to 229.1			CCc1ccc(NC(=O)Cc2csc(N=C(N)N)n2)cc1.Cl [KHG23186, 2-(2-(diaminomethyleneamino)thiazole-4-yl)-N-(4-ethylphenyl)acetamide hydrochloride]
21.4	187.9 to 188.6			Cc1ccc(CNC(=O)Cc2csc(N=C(N)N)n2)cc1.Cl [KHG23187, 2-(2-(diaminomethyleneamino)thiazole-4-yl)-N-(4-methylbenzyl)acetamide hydrochloride]
19.3	169.3 to 170.1			Cc1ccc(CCNC(=O)Cc2csc(N=C(N)N)n2)cc1.Cl [KHG23188, 2-(2-(diaminomethyleneamino)thiazole-4-yl)-N-(4-methylphenethyl)acetamide hydrochloride]
19.3	206.9 to 207.6			Cl.NC(N)=Nc1nc(CC(=O)NCc2ccc(F)c(F)c2)cs1 [KHG23189, 2-(2-(diaminomethyleneamino)thiazole-4-yl)-N-(3,4-difluorobenzyl)acetamide hydrochloride]
18	219.7 to 220.5			Cc1ccc(NC(=O)Cc2csc(N=C(N)N)n2)c(Br)c1.Cl [KHG23191, N-(2-bromo-4-methylphenyl)-2-(2-(diaminomethyleneamino)thiazole-4-yl)acetamide hydrochloride]
16.8	242.1 to 242.6			CCOc1ccc(NC(=O)Cc2csc(N=C(N)N)n2)cc1.Cl [KHG23192, N-(4-ethoxyphenyl)-2-(2-(diaminomethyleneamino)thiazole-4-yl)acetamide hydrochloride]
	264.9		13	Cl.NC(N)=Nc1nc(-c2ccc(Cl)cc2)cs1 [KHG24024, 2-(4-(4-chlorophenyl)thiazole-2-yl)guanidine hydrochloride]

inhibition at 10 µM [1, 2] [%]	melting point [°C]	% Inhibition [α1G, 10 μM) using FDSS6000 ([1]; 10 μM, Table 3 (Chemical Formula 2 series), hydrochloride) [%]	inhibition at 10 µM [1, 3] [%]	Structure (SMILES)
	223.3		19.9	Cl.NC(N)=Nc1nc(-c2ccc(F)cc2)cs1 [KHG24025, 2-(4-(4-fluorophenyl)thiazole-2-yl)guanidine hydrochloride]
	248.9		19.8	Cl.NC(N)=Nc1nc(-c2ccc(F)cc2F)cs1 [KHG24026, 2-(4-(2,4-difluorophenyl)thiazole-2-yl)guanidine hydrochloride]
	233.3		21.2	Cl.NC(N)=Nc1nc(-c2ccc3c(c2)OCC(=O)N3)cs1 [KHG24037, 2-(4-(3-oxo-3,4-dihydro-2H-benzo[b][1,4]oxazine-7-yl)thiazole-2-yl)guanidine hydrochloride]
	300.3		14.2	Cl.NC(N)=Nc1nc(-c2ccc(-c3ccccc3)cc2)cs1 [KHG24038, 2-(4-(biphenyl-4-yl)thiazole-2-yl)guanidine hydrochloride]
	211.9		21.7	Br.NC(N)=Nc1nc(-c2ccccc2Cl)cs1 [KHG24373, 2-(4-(2-chlorophenyl)thiazole-2-yl)guanidine hydrobromide]
	245.4		20.7	Br.COc1ccccc1-c1csc(N=C(N)N)n1 [KHG24374, 2-(4-(2-methoxyphenyl)thiazole-2-yl)guanidine hydrobromide]
	213		16.1	Br.COc1ccc(-c2csc(N=C(N)N)n2)c(OC)c1 [KHG24376, 2-(4-(2,4-dimethoxyphenyl)thiazole-2-yl)guanidine hydrobromide]
	202.6		20.2	Br.COc1ccc(-c2csc(N=C(N)N)n2)c(F)c1 [KHG24377, 2-(4-(2-fluoro-4-methoxyphenyl)thiazole-2-yl)guanidine hydrobromide]
	173		16.8	Br.NC(N)=Nc1nc(-c2ccc(Cl)cc2Cl)cs1 [KHG24379, 2-(4-(2,4-dichlorophenyl)thiazole-2-yl)guanidine hydrobromide]
	209.5		19.6	Br.NC(N)=Nc1nc(-c2ccccc2)cs1 [KHG24380, 2-(4-phenylthiazole-2-yl)guanidine hydrobromide]
	278.5		20.8	Br.NC(N)=Nc1nc(-c2ccc(Br)cc2)cs1 [KHG24381, 2-(4-(4-bromophenyl)thiazole-2-yl)guanidine hydrobromide]
	232.4		22.3	Br.Cc1cccc(-c2csc(N=C(N)N)n2)c1 [KHG24382, 2-(4-m-tolylthiazole-2-yl)guanidine hydrobromide]
	242.1		21.6	Br.NC(N)=Nc1nc(-c2cccc(F)c2)cs1 [KHG24383, 2-(4-(3-fluorophenyl)thiazole-2-yl)guanidine hydrobromide]
	229.6		20.3	Br.NC(N)=Nc1nc(-c2ccccc2F)cs1 [KHG24384, 2-(4-(2-fluorophenyl)thiazole-2-yl)guanidine hydrobromide]
	224.8		15.8	Br.NC(N)=Nc1nc(-c2cccc(C(F)(F)F)c2)cs1 [KHG24385, 2-(4-(3-(trifluoromethyl)phenyl)thiazole-2-yl)guanidine hydrobromide]
